Test results reported in paper PMC8763243, “Synthesis of Novel Suramin Analogs With Anti-Proliferative Activity via FGF1 and FGFRD2 Blockade” (Frontiers in Chemistry, 2022).
Where “and” joins values, the source holds several entries; their conditions need not be identical. Equal entries are not always repeated.

Legend:
[1] = Exposure stability study by 1H NMR in DMSO-d6 and D2O; format: physicochemical; conditions: 0.017 mol/L in DMSO-d6 and D2O, 11 days
Description: The stability of the compounds was verified in both aqueous and DMSO solutions. In aqueous medium, the stability of the suramin derivatives 15 and 18 were considered to verify the stability. A control experiment consisting of a DMSO-d 6 (0.017 mol/L) solution of 15 and a D2O solution of 15 (0.017 mol/L) was maintained on the laboratory bench. All experiments were performed in NMR tubes containing 0.017 mol/L solutions of compounds 15 and 18 in DMSO-d 6 and D2O, respectively. NMR spectra were recorded over 11 days (initially daily for 1 week).
10 mg of the newly synthesized compound was diluted in 500 µL DMSO-d 6 under investigation in a 5-mm NMR tube. The procedure was maintained as it is for 11 days in the solution. The ^1H NMR spectrum was recorded daily for 4 days up to 11 days.
10 mg of the novel compound was diluted in 500 µL D2O under investigation in a 5-mm NMR tube. The procedure was maintained as it is for 11 days in the solution. The ^1H NMR spectrum was recorded daily for 4 days up to 11 days.

[2] = WST-1 assay, cytotoxicity in normal breast epithelial cell line (non-tumorigenic); format: cell-based; conditions: human; non-tumorigenic MCF-10A cells; read-out: estimated IC50 (cytotoxicity)
Description: (§1) The water-soluble tetrazolium salt (WST-1) assay was performed to assess the effects of the compounds on cell proliferation and cytotoxicity. DMEM/F12 containing 10% FBS was used for the cell culture, and incubation was performed in 5% CO2 till the logarithmic growth phase was achieved. On the day before the experiment, the cells were trypsinized and seeded in a 96-well plate at a density of 5000 cells/well. For the FGF1-stimulated cell proliferation assay, the cells were then incubated for 24 h in a serum-free medium containing 0.1% bovine serum albumin (BSA). Serum-starved cells with or without a specified concentration of suramin, 14, 15, 17, 18, 21, and FGFRD2 were stimulated with 100 nM of FGF1 again for 48 h. For the purpose of the cytotoxicity assay, the cells were treated with an increased concentration of suramin and compounds 14, 17, 15, 18, and 21 (Figure 6) for 48 h. Also, 1/10 of the volume of WST-1 cell reagent was inserted in every well and maintained at 37°C for another 4 h before harvesting. There was gentle agitation of the medium in the cell culture plate for 10 min using a shaker. A Synergy 2 microplate reader (BioTek Instruments, Inc., VT, United States) was used to measure the absorbance at 450 nm. The relative absorbance was compared with the control treatment to determine the relative cell number.
In order to gain some insight about the selectivity of the compounds between tumorigenic and non-tumorigenic cells, the cytotoxicity was also being evaluated against normal breast cell lines by examining the cytotoxicity of suramin and its derivatives, compounds 15, 18, and 21, in a normal breast epithelial cell line (non-tumorigenic), MCF-10A. […] Compared to their cytotoxicity in tumorigenic MCF-7 cells (Figure 6), the estimated IC50 values in MCF-10A were higher than those in MCF-7 cells. […] However, the estimated IC50 value of suramin and its derivatives in both non-tumorigenic MCF-10A and tumorigenic MCF-7 cells were over 100 μM. The effective concentrations of suramin and its derivatives to attenuate FGF1-stimulated cell proliferation in MCF-7 cells were around 1 μM (Figure 5), which is non-toxic concentration to both MCF-7 cells and MCF-10A cells. […] Therefore, in addition to the specificity of each drug, the selectivity of suramin and its derivatives to disrupt the FGF1/FGFR-mediated breast cancer growth might rely on the overexpression or amplification of FGFR2 in breast cancer cells, but not in normal cells, and the secreted FGF1 ligand by autocrine or paracrine effects from cancer cells or their surrounding stroma cells or adipocytes (tumor microenvironment). The statistical data for the cytotoxicity are shown in Supplementary Figure S8.

[3] = target: T1, FGF1 (Homo sapiens, UniProt P05230); experiment: Fluorescence spectroscopy binding constant of FGF1 and suramin derivatives; conditions: fluorescence quenching, 5 µM FGF1, non-linear regression with Stern–Volmer equation, pH 6.5
T1 construct: made in house
T1 sequence (P05230 whole entry): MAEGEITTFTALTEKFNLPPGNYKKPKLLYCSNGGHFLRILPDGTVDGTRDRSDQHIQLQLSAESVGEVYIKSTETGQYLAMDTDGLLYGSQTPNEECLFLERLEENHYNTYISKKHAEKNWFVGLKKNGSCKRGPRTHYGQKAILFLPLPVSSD
Description: The binding constant Kd was calculated for FGF1 and the five derivatives in a buffer containing 10% D2O, 50 mM AMS, 20 mM phosphate buffer, and 50 mM NaCl at pH 6.5 using an F-2500 Hitachi fluorescence spectrophotometer.
[…] has tremendous significance for biochemical application because it provides valuable knowledge about the probability of quencher activity. The anti-mitogenic activity of the five compounds was achieved by the same mechanism in which suramin inhibits the mitogenic activity of FGF1. A non-linear regression curve was plotted for the relative intensities of activity versus drug concentration using the Stern–Volmer equation (Eq. 1). log(F0−F)/F=logK+nlog[Q], (1)
where F0 represents the fluorescence intensity in the absence of the compounds, and F represents the fluorescence intensity in the presence of the [Q] concentration of the compounds.
Increasing concentrations of these five suramin derivatives were added to a solution containing 5 µM FGF1. A reduction in the fluorescence intensity was reported for all five suramin derivatives. The Stern–Volmer equation was used to calculate the binding constant between FGF1 and compounds 14, 15, 17, 18, and 21 for relative intensities versus the total concentration in a non-linear regression curve.

[4] = test system: MCF-7 cells; experiment: WST-1 assay, cytotoxicity in tumorigenic cells; format: cell-based, human; conditions: for Mean (Blank 450) / Fold (mean) / Blank 450 / Fold: S8; for Fold (mean): relative to control; for Blank 450: single replicate absorbance; for Fold: single replicate relative to control; for cytotoxicity compared with suramin: MCF-7 cells, 1-100 µM, 48 h, especially at concentrations higher than 10 µM
Description: as §1
(§2) […] […] The reason for the higher cytotoxicity was the presence of methyl groups on the suramin structure ([Martello et al., 2001]).
(§3) Suramin-induced neuropathy may depend on the effects on calcium (Ca^2+) homeostasis as a potential pathological mechanism, and the full or partial positive charge of the element when directly attached to the ring at each of the sulphonic groups (HSO3). These interactions exert a moderate to strong electron-withdrawing inductive effect, which may be responsible for the observed suramin cytotoxicity ([Prasetyaningrum et al., 2018]; [Von Der Ahe et al., 2018]). The cytotoxicity of the synthesized analogs was lower as there were methyl groups and no sulfonic acid groups attached to the suramin backbone. The IC50 values of the synthesized compounds in MCF-7 breast cancer cells were analyzed using SigmaPlot software.

[5] = WST-1 assay, cytotoxicity in tumorigenic cells; format: cell-based, human; conditions: human; MCF-7 cells, 48 h, SigmaPlot; read-out: estimated IC50 (cytotoxicity)
Description: as §1, §2, §3

Row | stability in solution (1H NMR) [1] | Kd [3] [µM] | SMILES | IC50 at 48 h [2] [µM] | Mean (Blank 450) ([4]; 1 uM) | Fold (mean) ([4]; 1 uM) | Blank 450 ([4]; 1 uM) | Fold ([4]; 1 uM) | Mean (Blank 450) ([4]; 5 uM) | Fold (mean) ([4]; 5 uM) | Blank 450 ([4]; 5 uM) | Fold ([4]; 5 uM) | Mean (Blank 450) ([4]; 10 uM) | Fold (mean) ([4]; 10 uM) | Blank 450 ([4]; 10 uM) | Fold ([4]; 10 uM) | Mean (Blank 450) ([4]; 50 uM) | Fold (mean) ([4]; 50 uM) | Blank 450 ([4]; 50 uM) | Fold ([4]; 50 uM) | Mean (Blank 450) ([4]; 100 uM) | other results
1 | remarkably stable | 20.9 | O=C(Nc1ccc(C(=O)Nc2cc(S(=O)(=O)[O-])cc3cc(S(=O)(=O)[O-])cc(S(=O)(=O)[O-])c23)cc1)Nc1ccc(C(=O)Nc2cc(S(=O)(=O)[O-])cc3cc(S(=O)(=O)[O-])cc(S(=O)(=O)[O-])c23)cc1.[Na+].[Na+].[Na+].[Na+].[Na+].[Na+] [Compound 15, Sodium 8,8'-((4,4'-(carbonylbis (azanediyl))bis (benzoyl))bis (azanediyl))bis (naphthalene-1,3,6-trisulfonate)] | 221 ± 3.57 | 1.163 | 1.00 | 1.143 and 1.162 and 1.195 and 1.152 | 0.981 and 0.997 and 1.026 and 0.989 | 1.146 | 0.98 | 1.161 and 1.116 and 1.206 and 1.101 | 0.996 and 0.958 and 1.035 and 0.945 | 1.122 | 0.96 | 1.151 and 1.117 and 1.059 and 1.162 | 0.988 and 0.959 and 0.909 and 0.997 | 0.982 | 0.84 | 0.998 and 1.012 and 0.955 and 0.961 | 0.856 and 0.868 and 0.820 and 0.825 | 0.880 | Fold (mean) ([4]; 100 uM): 0.75; Blank 450 ([4]; 100 uM): 0.927 and 0.887 and 0.833 and 0.872; Fold ([4]; 100 uM): 0.796 and 0.761 and 0.715 and 0.748; cytotoxicity compared with suramin [4]: less toxic; IC50 at 48 h [5]: > 100 µM
2 | remarkably stable | 15.5 | O=C(Nc1ccc(C(=O)Nc2ccc(C(=O)Nc3cc(S(=O)(=O)O)cc4cc(S(=O)(=O)O)cc(S(=O)(=O)O)c34)cc2)cc1)Nc1ccc(C(=O)Nc2ccc(C(=O)Nc3cc(S(=O)(=O)O)cc4cc(S(=O)(=O)O)cc(S(=O)(=O)O)c34)cc2)cc1 [Compound 18, Sodium 8,8'-((4,4'-((4,4'-(carbonylbis (azanediyl))bis (benzoyl))bis (azanediyl))bis (benzoyl))bis(azanediyl)) bis (naphthalene-1,3,6-trisulfonate)] | 653.4 ± 2.31 | 1.224 | 1.05 | 1.234 and 1.224 and 1.182 and 1.256 | 1.059 and 1.050 and 1.014 and 1.078 | 1.176 | 1.01 | 1.176 and 1.214 and 1.141 and 1.173 | 1.009 and 1.042 and 0.979 and 1.007 | 1.160 | 1.00 | 1.108 and 1.161 and 1.207 and 1.165 | 0.951 and 0.996 and 1.036 and 1.000 | 1.139 | 0.98 | 1.184 and 1.149 and 1.053 and 1.169 | 1.016 and 0.986 and 0.904 and 1.003 | 1.057 | Fold (mean) ([4]; 100 uM): 0.91; Blank 450 ([4]; 100 uM): 1.098 and 1.004 and 1.043 and 1.081; Fold ([4]; 100 uM): 0.942 and 0.862 and 0.895 and 0.928; cytotoxicity compared with suramin [4]: less toxic; IC50 at 48 h [5]: > 100 µM
